Reference: US11739100B2, “2,3-dihydro-1h-imidazo{1,2-a}pyrimidin-5-one and this 1,2,3,4-tetrahydropyrimido{1,2-a}pyrimidin-6-one derivatives comprising a substituted morpholine, preparation thereof and pharmaceutical use thereof” (SANOFI, priority 2012, dated 2023)

biological target: T1, recombinant Vps34 (Homo sapiens, UniProt Q8NEB9); assay: Phosphorylation of phosphatidylinositol (PI) by Vps34 in vitro, ADP detected by TR-FRET (HTRF Transcreener ADP); assay type: biochemical; details: 10 μM ATP, 55 μg/ml PI, approximately 3 nM Vps34, 1 hour at ambient temperature; absolute IC50, mean of two independent experiments; read-out: IC50 activity range
T1 construct: purchased Invitrogen PV5126
T1 sequence (Q8NEB9 whole entry): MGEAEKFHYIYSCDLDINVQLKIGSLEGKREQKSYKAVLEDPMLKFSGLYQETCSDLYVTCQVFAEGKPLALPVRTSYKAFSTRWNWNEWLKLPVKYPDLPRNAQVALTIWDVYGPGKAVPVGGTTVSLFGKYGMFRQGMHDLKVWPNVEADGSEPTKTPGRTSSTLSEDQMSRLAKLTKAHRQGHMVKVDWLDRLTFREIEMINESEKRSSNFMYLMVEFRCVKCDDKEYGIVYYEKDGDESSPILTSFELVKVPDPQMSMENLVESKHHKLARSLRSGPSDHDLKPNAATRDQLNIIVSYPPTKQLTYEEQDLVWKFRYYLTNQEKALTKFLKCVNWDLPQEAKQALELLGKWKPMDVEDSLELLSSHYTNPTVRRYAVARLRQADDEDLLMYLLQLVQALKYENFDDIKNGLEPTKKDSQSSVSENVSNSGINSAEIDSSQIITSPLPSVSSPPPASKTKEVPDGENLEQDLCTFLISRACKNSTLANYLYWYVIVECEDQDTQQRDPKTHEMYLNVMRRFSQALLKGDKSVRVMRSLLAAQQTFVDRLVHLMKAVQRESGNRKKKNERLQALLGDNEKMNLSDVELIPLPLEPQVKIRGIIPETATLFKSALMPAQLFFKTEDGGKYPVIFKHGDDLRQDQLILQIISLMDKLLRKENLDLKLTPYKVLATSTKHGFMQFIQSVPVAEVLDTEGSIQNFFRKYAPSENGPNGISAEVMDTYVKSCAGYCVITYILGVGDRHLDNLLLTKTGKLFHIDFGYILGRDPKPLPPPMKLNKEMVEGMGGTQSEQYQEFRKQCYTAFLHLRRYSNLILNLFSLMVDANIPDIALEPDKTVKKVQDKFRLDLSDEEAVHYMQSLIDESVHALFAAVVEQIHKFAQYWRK

SMILES	IC50
C[C@@H]1COC[C@@H](C)N1c1cc(=O)n2c(n1)N(Cc1ccno1)[C@H](C(F)(F)F)CC2 [Example 9, (S)-2-((3R,5R)-3,5-Dimethylmorpholin-4-yl)-9-isoxazol-5-yl-methyl-8-trifluoromethyl-6,7,8,9-tetrahydro-pyrimido[1,2-a]-pyrimidin-4-one]	< 0.01 µM
COCCN1c2nc(N3CCOC[C@H]3C)c(F)c(=O)n2CC[C@H]1C(F)(F)F [Example 20, (S)-3-Fluoro-9-(2-methoxy-ethyl)-2-((R)-3-methylmorpholin-4-yl)-8-trifluoromethyl-6,7,8,9-tetrahydro-pyrimido[1,2-a]-pyrimidin-4-one]	< 0.01 µM
C[C@@H]1COCCN1c1cc(=O)n2c(n1)N(CC(=O)Cc1ccccn1)[C@H](C(F)(F)F)CC2 [Example 67, (S)-2-((R)-3-Methyl-morpholin-4-yl)-9-(2-oxo-3-pyridin-2-yl-propyl)-8-trifluoromethyl-6,7,8,9-tetrahydro-pyrimido[1,2-a]-pyrimidin-4-one]	< 0.01 µM
C[C@@H]1COCCN1c1cc(=O)n2c(n1)N(c1ccc(C3CCC3)nc1)[C@H](C(F)(F)F)CC2 [Example 88, (S)-9-(6-Cyclobutyl-pyridin-3-yl)-2-((R)-3-methylmorpholin-4-yl)-8-trifluoromethyl-6,7,8,9-tetrahydro-pyrimido[1,2-a]-pyrimidin-4-one]	< 0.01 µM
C[C@@H]1COCCN1c1nc2n(c(=O)c1F)[C@@H](C(F)(F)F)CCN2CC(=O)C1CC1 [Example 120, (R)-9-(2-Cyclopropyl-2-oxoethyl)-3-fluoro-2-((R)-3-methyl-morpholin-4-yl)-6-trifluoromethyl-6,7,8,9-tetrahydro-pyrimido[1,2-a]-pyrimidin-4-one]	< 0.01 µM
C[C@@H]1COCCN1c1nc2n(c(=O)c1F)CC[C@@H](C(F)(F)F)N2CC(=O)c1nccs1 [Example 68, (S)-3-Fluoro-2-((R)-3-methylmorpholin-4-yl)-9-(2-oxo-2-thiazol-2-yl-ethyl)-8-trifluoromethyl-6,7,8,9-tetrahydro-pyrimido[1,2-a]-pyrimidin-4-one]	< 0.01 µM
C[C@@H]1COCCN1c1nc2n(c(=O)c1F)CC[C@@H](C(F)(F)F)N2c1ccncc1 [Example 55, (S)-3-Fluoro-2-((R)-3-methylmorpholin-4-yl)-9-pyridin-4-yl-8-trifluoromethyl-6,7,8,9-tetrahydro-pyrimido[1,2-a]-pyrimidin-4-one]	< 0.01 µM
Cc1ccc(N2c3nc(N4CCOC[C@H]4C)cc(=O)n3CC[C@H]2C(F)(F)F)cn1 [Example 83, (S)-2-((R)-3-Methyl-morpholin-4-yl)-9-(6-methylpyridin-3-yl)-8-trifluoromethyl-6,7,8,9-tetrahydro-pyrimido[1,2-a]-pyrimidin-4-one]	< 0.01 µM
C[C@@H]1COCCN1c1cc(=O)n2c(n1)N(CC(=O)c1ccccn1)CC[C@@H]2C(F)(F)F [Example 102, (R)-2-((R)-3-Methyl-morpholin-4-yl)-9-(2-oxo-2-pyridin-2-yl-ethyl)-6-trifluoromethyl-6,7,8,9-tetrahydro-pyrimido[1,2-a]-pyrimidin-4-one]	< 0.01 µM
C[C@@H]1COCCN1c1nc2n(c(=O)c1F)CCC(C)(C)N2Cc1ccnn1C(F)F [Example 74, 9-(2-Difluoromethyl-2H-pyrazol-3-yl-methyl)-3-fluoro-8,8-dimethyl-2-((R)-3-methylmorpholin-4-yl)-6,7,8,9-tetrahydro-pyrimido[1,2-a]-pyrimidin-4-one]	0.01 to 0.1 µM
C[C@@H]1COCCN1c1nc2n(c(=O)c1F)CC[C@@H](C(F)(F)F)N2Cc1cnco1 [Example 111, (S)-3-Fluoro-2-((R)-3-methylmorpholin-4-yl)-9-oxazol-5-ylmethyl-8-trifluoromethyl-6,7,8,9-tetrahydro-pyrimido[1,2-a]-pyrimidin-4-one]	< 0.01 µM

More lines, now with the values ahead:

IC50	SMILES
0.01 to 0.1 µM	C[C@@H]1COC[C@H](C)N1c1cc(=O)n2c(n1)N(Cc1ccc(Cl)s1)[C@H](C(F)(F)F)CC2 [Example 151, (S)-9-(5-Chloro-thiophen-2-ylmethyl)-2-((3S,5R)-3,5-dimethylmorpholin-4-yl)-8-trifluoromethyl-6,7,8,9-tetrahydro-pyrimido[1,2-a]-pyrimidin-4-one]
< 0.01 µM	C[C@@H]1COC[C@@H](C)N1c1cc(=O)n2c(n1)N(Cc1ccnn1C(F)F)[C@H](C(F)(F)F)CC2 [Example 154, (S)-9-(2-Difluoromethyl-2H-pyrazol-3-ylmethyl)-2-((3R,5R)-3,5-dimethyl-morpholin-4-yl)-8-trifluoromethyl-6,7,8,9-tetrahydro-pyrimido[1,2-a]-pyrimidin-4-one]
< 0.01 µM	CO/N=C(/CN1c2nc(N3CCOC[C@H]3C)cc(=O)n2CC[C@H]1C(F)(F)F)C1CC1 (single isomer, unassigned) [Example 306]
< 0.01 µM	C[C@@H]1COCCN1c1cc(=O)n2c(n1)N(Cc1noc(C3CC3)n1)[C@H](C(F)(F)F)CC2 [Example 202, (S)-9-(5-Cyclopropyl-[1,2,4]oxadiazol-3-yl-methyl)-2-((R)-3-methylmorpholin-4-yl)-8-trifluoromethyl-6,7,8,9-tetrahydro-pyrimido[1,2-a]-pyrimidin-4-one]
< 0.01 µM	C[C@@H]1COCCN1c1cc(=O)n2c(n1)N(Cc1noc(C(C)(C)C)n1)[C@H](C(F)(F)F)CC2 [Example 203, (S)-9-(5-tert-Butyl-[1,2,4]oxadiazol-3-yl-methyl)-2-((R)-3-methylmorpholin-4-yl)-8-trifluoromethyl-6,7,8,9-tetrahydro-pyrimido[1,2-a]-pyrimidin-4-one]
< 0.01 µM	C[C@@H]1COCCN1c1cc(=O)n2c(n1)N(Cc1nnc(C3CC3)o1)[C@H](C(F)(F)F)CC2 [Example 142, (S)-9-(5-Cyclopropyl-[1,3,4]oxadiazol-2-yl-methyl)-2-((R)-3-methylmorpholin-4-yl)-8-trifluoromethyl-6,7,8,9-tetrahydro-pyrimido[1,2-a]-pyrimidin-4-one]
< 0.01 µM	C[C@@H]1COCCN1c1cc(=O)n2c(n1)N(c1ccc(C3CC3)nc1)[C@H](C(F)(F)F)CC2 [Example 302, (S)-9-(6-Cyclopropyl-pyridin-3-yl)-2-((R)-3-methylmorpholin-4-yl)-8-trifluoromethyl-6,7,8,9-tetrahydro-pyrimido[1,2-a]-pyrimidin-4-one]
0.01 to 0.1 µM	C[C@@H]1COCCN1c1cc(=O)n2c(n1)N(CC(=O)Nc1ccccc1)[C@H](C(F)(F)F)CC2 [Example 236, 2-[(S)-8-((R)-3-Methyl-morpholin-4-yl)-6-oxo-2-trifluoromethyl-3,4-dihydro-2H,6H-pyrimido[1,2-a]-pyrimidin-1-yl]-N-phenyl-acetamide]
0.01 to 0.1 µM	CC1(C)COCCN1c1cc(=O)n2c(n1)N(CC(=O)c1ccccc1)[C@H](C(F)(F)F)CC2 [Example 150, (S)-2-(3,3-Dimethyl-morpholin-4-yl)-9-(2-oxo-2-phenylethyl)-8-trifluoromethyl-6,7,8,9-tetrahydro-pyrimido[1,2-a]-pyrimidin-4-one]
< 0.01 µM	C[C@@H]1COCCN1c1cc(=O)n2c(n1)N(Cc1nccs1)[C@H](C(F)(F)F)CC2 [Example 231, (S)-2-((R)-3-Methyl-morpholin-4-yl)-9-thiazol-2-ylmethyl-8-trifluoromethyl-6,7,8,9-tetrahydro-pyrimido[1,2-a]-pyrimidin-4-one]
